Experimental data taken from paper PMC5423977, “Safety, pharmacokinetics, and pharmacodynamics of BMS-986142, a novel reversible BTK inhibitor, in healthy participants” (European Journal of Clinical Pharmacology, 2017).

Assay: Safety and tolerability (adverse events), Study 1 SAD in healthy participants
Type: in vivo, human
Conditions: n = 6

Cc1c(-c2c(F)cc(C(N)=O)c3[nH]c4c(c23)CC[C@H](C(C)(C)O)C4)cccc1-n1c(=O)c2cccc(F)c2n(C)c1=O [BMS-986142, 6-fluoro-5-(R)-(3-(S)-(8-fluoro-1-methyl-2,4-dioxo-1,2-dihydroquinazolin-3(4H)-yl)-2-methylphenyl)-2-(S)-(2-hydroxypropan-2-yl)-2,3,4,9-tetrahydro-1H-carbazole-8-carboxamide]
AE SOC: Gastrointestinal Disorders (SAD 5 mg): 0 n (%) | AE SOC: General disorders and administration site conditions (SAD 5 mg): 0 n (%) | AE SOC: Infections and infestations (SAD 5 mg): 0 n (%) | AE SOC: Injury, poisoning and procedural complications (SAD 5 mg): 0 n (%) | AE SOC: Musculoskeletal and connective tissue disorders (SAD 5 mg): 0 n (%) | AE SOC: Nervous system disorders (SAD 5 mg): 0 n (%) | AE SOC: Renal and urinary disorders (SAD 5 mg): 0 n (%) | AE SOC: Respiratory, thoracic and mediastinal disorders (SAD 5 mg): 0 n (%) | AE: Aphthous stomatitis (SAD 5 mg): 0 n (%) | AE: Chest pain (SAD 5 mg): 0 n (%) | AE: Contusion (SAD 5 mg): 0 n (%) | AE: Cough (SAD 5 mg): 0 n (%) | AE: Diarrhoea (SAD 5 mg): 0 n (%) | AE: Dizziness (SAD 5 mg): 0 n (%) | AE: Headache (SAD 5 mg): 0 n (%) | AE: Lip Dry (SAD 5 mg): 0 n (%) | AE: Muscle spasms (SAD 5 mg): 0 n (%) | AE: Nausea (SAD 5 mg): 0 n (%) | AE: Paraesthesia (SAD 5 mg): 0 n (%) | AE: Polyuria (SAD 5 mg): 0 n (%) | AE: Syncope (SAD 5 mg): 0 n (%) | AE: Tension headache (SAD 5 mg): 0 n (%) | AE: Thermal burn (SAD 5 mg): 0 n (%) | AE: Toothache (SAD 5 mg): 0 n (%) | AE: Upper respiratory tract infection (SAD 5 mg): 0 n (%) | AE: Vomiting (SAD 5 mg): 0 n (%) | Total participants with an event (SAD 5 mg): 0 n (%) | AE SOC: Gastrointestinal Disorders (SAD 15 mg): 1 (16.7) n (%) | AE SOC: General disorders and administration site conditions (SAD 15 mg): 0 n (%) | AE SOC: Infections and infestations (SAD 15 mg): 0 n (%) | AE SOC: Injury, poisoning and procedural complications (SAD 15 mg): 0 n (%) | AE SOC: Musculoskeletal and connective tissue disorders (SAD 15 mg): 0 n (%) | AE SOC: Nervous system disorders (SAD 15 mg): 0 n (%) | AE SOC: Renal and urinary disorders (SAD 15 mg): 0 n (%) | AE SOC: Respiratory, thoracic and mediastinal disorders (SAD 15 mg): 0 n (%) | AE: Aphthous stomatitis (SAD 15 mg): 1 (16.7) n (%) | AE: Chest pain (SAD 15 mg): 0 n (%) | AE: Contusion (SAD 15 mg): 0 n (%) | AE: Cough (SAD 15 mg): 0 n (%) | AE: Diarrhoea (SAD 15 mg): 0 n (%) | AE: Dizziness (SAD 15 mg): 0 n (%) | AE: Headache (SAD 15 mg): 0 n (%) | AE: Lip Dry (SAD 15 mg): 0 n (%) | AE: Muscle spasms (SAD 15 mg): 0 n (%) | AE: Nausea (SAD 15 mg): 0 n (%) | AE: Paraesthesia (SAD 15 mg): 0 n (%) | AE: Polyuria (SAD 15 mg): 0 n (%) | AE: Syncope (SAD 15 mg): 0 n (%) | AE: Tension headache (SAD 15 mg): 0 n (%) | AE: Thermal burn (SAD 15 mg): 0 n (%) | AE: Toothache (SAD 15 mg): 0 n (%) | AE: Upper respiratory tract infection (SAD 15 mg): 0 n (%) | AE: Vomiting (SAD 15 mg): 0 n (%) | Total participants with an event (SAD 15 mg): 1 (16.7) n (%) | AE SOC: Gastrointestinal Disorders (SAD 50 mg): 0 n (%) | AE SOC: General disorders and administration site conditions (SAD 50 mg): 0 n (%) | AE SOC: Infections and infestations (SAD 50 mg): 1 (16.7) n (%) | AE SOC: Injury, poisoning and procedural complications (SAD 50 mg): 1 (16.7) n (%) | AE SOC: Musculoskeletal and connective tissue disorders (SAD 50 mg): 1 (16.7) n (%) | AE SOC: Nervous system disorders (SAD 50 mg): 2 (33.3) n (%) | AE SOC: Renal and urinary disorders (SAD 50 mg): 0 n (%) | AE SOC: Respiratory, thoracic and mediastinal disorders (SAD 50 mg): 0 n (%) | AE: Aphthous stomatitis (SAD 50 mg): 0 n (%) | AE: Chest pain (SAD 50 mg): 0 n (%) | AE: Contusion (SAD 50 mg): 1 (16.7) n (%) | AE: Cough (SAD 50 mg): 0 n (%) | AE: Diarrhoea (SAD 50 mg): 0 n (%) | AE: Dizziness (SAD 50 mg): 0 n (%) | AE: Headache (SAD 50 mg): 2 (33.3) n (%) | AE: Lip Dry (SAD 50 mg): 0 n (%) | AE: Muscle spasms (SAD 50 mg): 1 (16.7) n (%) | AE: Nausea (SAD 50 mg): 0 n (%) | AE: Paraesthesia (SAD 50 mg): 0 n (%) | AE: Polyuria (SAD 50 mg): 0 n (%) | AE: Syncope (SAD 50 mg): 0 n (%) | AE: Tension headache (SAD 50 mg): 0 n (%) | AE: Thermal burn (SAD 50 mg): 1 (16.7) n (%) | AE: Toothache (SAD 50 mg): 0 n (%) | AE: Upper respiratory tract infection (SAD 50 mg): 1 (16.7) n (%) | AE: Vomiting (SAD 50 mg): 0 n (%) | Total participants with an event (SAD 50 mg): 2 (33.3) n (%) | AE SOC: Gastrointestinal Disorders (SAD 100 mg): 1 (16.7) n (%) | AE SOC: General disorders and administration site conditions (SAD 100 mg): 0 n (%) | AE SOC: Infections and infestations (SAD 100 mg): 0 n (%) | AE SOC: Injury, poisoning and procedural complications (SAD 100 mg): 0 n (%) | AE SOC: Musculoskeletal and connective tissue disorders (SAD 100 mg): 0 n (%) | AE SOC: Nervous system disorders (SAD 100 mg): 1 (16.7) n (%) | AE SOC: Renal and urinary disorders (SAD 100 mg): 1 (16.7) n (%) | AE SOC: Respiratory, thoracic and mediastinal disorders (SAD 100 mg): 0 n (%) | AE: Aphthous stomatitis (SAD 100 mg): 0 n (%) | AE: Chest pain (SAD 100 mg): 0 n (%) | AE: Contusion (SAD 100 mg): 0 n (%) | AE: Cough (SAD 100 mg): 0 n (%) | AE: Diarrhoea (SAD 100 mg): 0 n (%) | AE: Dizziness (SAD 100 mg): 0 n (%) | AE: Headache (SAD 100 mg): 0 n (%) | AE: Lip Dry (SAD 100 mg): 0 n (%) | AE: Muscle spasms (SAD 100 mg): 0 n (%) | AE: Nausea (SAD 100 mg): 0 n (%) | AE: Paraesthesia (SAD 100 mg): 0 n (%)
